PubChem BioAssay (NCI)
Where “and” joins values, the source holds several entries; their conditions need not be identical. Equal values may be shown once.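 Compound exposure: 48 hours, 5 concentrations, 96-well plates. At the GI50, growth is halved. TGI denotes the concentration required for complete inhibition of growth.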

What was measured:
Experiment in all cases: DTP human tumour cell line panel, 48 h
SN12C renal = system: SN12C renal
COLO 205 colon = system: COLO 205 colon
NCI-H226 lung = system: NCI-H226 lung
ACHN renal = system: ACHN renal
OVCAR-4 ovarian = system: OVCAR-4 ovarian
HS 578T breast = system: HS 578T breast
OVCAR-8 ovarian = system: OVCAR-8 ovarian
M14 melanoma = system: M14 melanoma
CCRF-CEM leukemia = system: CCRF-CEM leukemia
HCC-2998 colon = system: HCC-2998 colon

Row | SMILES | TGI (SN12C renal) | TGI (COLO 205 colon) | TGI (NCI-H226 lung) | TGI (ACHN renal) | TGI (OVCAR-4 ovarian) | TGI (HS 578T breast) | TGI (OVCAR-8 ovarian) | TGI (M14 melanoma) | TGI (CCRF-CEM leukemia) | TGI (HCC-2998 colon) | GI50 (SN12C renal) | GI50 (COLO 205 colon) | GI50 (NCI-H226 lung) | GI50 (ACHN renal) | GI50 (OVCAR-4 ovarian) | GI50 (OVCAR-8 ovarian) | GI50 (M14 melanoma) | GI50 (CCRF-CEM leukemia) | GI50 (HCC-2998 colon) | GI50 (HS 578T breast)
1 | C=C1C(=O)O[C@@H]2CC(CO)=C([C@@H](C)CCCO)[C@@H](OC(=O)/C(C)=C\C)[C@H]12 | 43.5 µM | 28.7 µM | > 62.8 µM | 39.8 µM | > 84.9 µM | > 100 µM | > 76.8 µM | > 81.4 µM | 10 µM | 29.6 µM | – | – | – | – | – | – | – | – | – | –
2 | Oc1ccc(Cl)cc1Sc1cc(Cl)ccc1O | 27.4 µM and 10.4 µM | 39.9 µM and 20.2 µM | 41.9 µM and 19.2 µM | 23.1 µM and 8.27 µM | 22.9 µM and 13.5 µM | 29.7 µM | 42.7 µM and 10.8 µM | 26 µM and 12.7 µM | 55 µM and 12.8 µM | 14.8 µM | 3.16 µM | 5.93 µM | 4.09 µM | 2.72 µM | 3.4 µM | 3.36 µM | 3.83 µM | 2.59 µM | 3.92 µM | –
3 | C[C@H]1COCCN1c1nc(-c2cnc(N)cc2C(F)F)nc(N2CCOCC2)n1 | > 100 µM | 19.8 µM | > 100 µM | > 100 µM | – | 0.551 µM | > 100 µM | 29.7 µM | > 50.3 µM | 15.1 µM | 0.159 µM | 0.179 µM | 0.127 µM | 0.207 µM | 0.174 µM | 0.291 µM | 0.129 µM | 0.285 µM | 0.186 µM | 0.1 µM
4 | COc1c(B(O)O)cccc1-c1nc2ccc3[nH]ncc3c2c2c1CCCC2 | 42.7 µM | 6.32 µM | 12.2 µM | 16.8 µM | 27.1 µM | 7.92 µM | > 38.8 µM | 13.2 µM | > 49.7 µM | 6.12 µM | 1.77 µM | 2.2 µM | 1.51 µM | 1.77 µM | 4.23 µM | 2.39 µM | 4.06 µM | 0.544 µM | 2.35 µM | 0.0622 µM
5 | Cn1cc(C2=C(c3cc[nH]c3)C(=O)NC2=O)c2ccccc21 | > 25 µM | > 25 µM | > 25 µM | > 25 µM | > 25 µM | > 25 µM | > 25 µM | > 25 µM | > 25 µM | > 25 µM | > 25 µM | > 25 µM | 15.5 µM | > 25 µM | > 25 µM | > 25 µM | > 25 µM | > 25 µM | > 25 µM | 9.97 µM
6 | COc1ccc(/C=C2\COc3ccc(O)c(O)c3C2=O)cc1OC | 5.16 µM | 6.18 µM | 48.1 µM | 2.75 µM | 13.3 µM | 8.29 µM | 15.7 µM | 3.31 µM | 12.1 µM | 3.31 µM | 1.39 µM | 2.17 µM | 3.91 µM | 1.32 µM | 1.61 µM | 1.68 µM | 1.43 µM | 0.377 µM | 1.76 µM | 2.23 µM
7 | Cc1nn(Cc2ccccc2)cc1C(=O)Nc1sc2c(c1C(N)=O)CCC(=O)C2 | 7.74 µM | 3.76 µM | 5.7 µM | 3.35 µM | 3.45 µM | 9.71 µM | > 100 µM | 14.4 µM | 17.1 µM | 7.41 µM | 2.61 µM | 1.67 µM | 2.29 µM | 1.65 µM | 1.47 µM | 3.27 µM | 3.42 µM | 0.789 µM | 2.56 µM | 2.51 µM
8 | CC(C)c1[nH]nc2c(NCc3ccc(-c4ccccn4)cc3)nc(SCCN)nc12 | 0.185 µM | 0.0342 µM | 0.0985 µM | 4.7 µM | 0.394 µM and 1.41 µM | – | 12.9 µM | 0.151 µM and 1.16 µM | 15.1 µM | 1.08 µM | 0.0238 µM | – | 0.0404 µM and 0.0279 µM | 0.273 µM and 0.286 µM | 0.00585 µM | 0.0387 µM and 0.0243 µM | 0.0155 µM and 0.0181 µM | 0.00978 µM | 0.025 µM | 0.0151 µM
9 | C=C1C(=O)O[C@H]2[C@H]1CC/C(COC(=O)CCCCCCCC(=O)OC/C1=C/CC[C@@]3(C)O[C@H]3[C@H]3OC(=O)C(=C)[C@@H]3CC1)=C\CC[C@@]1(C)O[C@@H]21 | 9.33 µM | 3.78 µM | 6.97 µM | 5.51 µM | 20.1 µM | 27.3 µM | 8.44 µM | 4.11 µM | 7.49 µM | 3.88 µM | 2.75 µM | 1.76 µM | 2.63 µM | 1.85 µM | 4.58 µM | 2.75 µM | 1.77 µM | 0.476 µM | 1.9 µM | 3.84 µM
10 | CC1=CC(C)(C)Nc2ccc(Cc3ccc4c(c3)C(C)=CC(C)(C)N4)cc21 | > 100 µM | 45.2 µM | > 100 µM | > 100 µM | > 100 µM | 47.4 µM | 56.8 µM | > 100 µM | 59.6 µM | > 100 µM | 11.2 µM | 20.3 µM | 20.2 µM | 11.1 µM | 7.24 µM | 9.59 µM | 28.4 µM | 4.67 µM | 20.6 µM | 8.14 µM
11 | C[C@@]1(C(=O)O)CCC[C@]2(C)C1CC[C@]13C[C@@](O)(CO)[C@](O)(CC[C@]12O)C3 (stereo partly specified) | > 100 µM | > 100 µM | > 100 µM | > 100 µM | > 100 µM | > 100 µM | > 100 µM | > 100 µM | > 100 µM | > 100 µM | > 100 µM | > 100 µM | > 100 µM | > 100 µM | > 100 µM | > 100 µM | > 100 µM | > 100 µM | > 100 µM | > 100 µM
12 | CN(C)c1cc2c(Nc3ccc4c(cnn4Cc4ccccc4)c3)ncnc2cn1 | > 25 µM | > 25 µM | > 25 µM | > 25 µM | > 25 µM | > 25 µM | > 25 µM | > 25 µM | > 25 µM | > 25 µM | 12.1 µM | 10.1 µM | 15.9 µM | 2.1 µM | 14.2 µM | 9.13 µM | 14.8 µM | 10.3 µM | 10.8 µM | 16.6 µM
13 | Cc1ccc(NC(=S)C#N)c(C)c1 | > 100 µM | > 100 µM | > 100 µM | > 100 µM | > 100 µM | > 100 µM | > 100 µM | > 100 µM | > 100 µM | > 100 µM | – | – | – | – | – | – | – | – | – | –
